# Experimental data published in US20020197261A1, “Therapeutic agent/ligand conjugate compositions, their methods of synthesis and use” (priority 2001, published 2002).
# pIC50: −log10 of the molar value.
# Test system: A431 cells
# Experiment: MTT cytotoxicity, 6-hour pretreatment system
# Type: cell-based
# Details: Homo sapiens, A-431, read-out: IC50 (50% growth inhibition), 6 hours exposure, washing, additional 72 hours incubation
# Procedure: One hundred microliter of growth medium suspending 1000-2000 cells per well was plated out in 96-well plates and incubated for 2 days to allow the cells to attach. Various dilutions of the drug or conjugates were added to each well and the plates were incubated for 72 hours at 37° C. Alternatively, a 6-hour pretreatment protocol was used. Cells were exposed to various concentrations of the drug or conjugate for 6 hours at 37 ° C., and then washed twice with the fresh culture medium. The cells were incubated for additional 72 hours. At the end of the incubation period, twenty microliters of MTT solution from Promega Cell Proliferation Assay kit (Madison, Wis.) were added to the wells. The microplates were then incubated for 1 hour at 37° C. Absorbance was measured at 490 nm using a microplate reader (Molecular Devices Corp, Sunnyvale, Calif.). The data reported represent the means of quadruplicate measurement and the standard errors of the mean were less than 15%.
structure (smiles),measurement,value
"COc1cccc2c1C(=O)c1c(O)c3c(c(O)c1C2=O)C[C@@](O)(C(=O)CO)C[C@@H]3O[C@H]1C[C@H](N)[C@H](O)[C@H](C)O1 [Adr, Adriamycin]",pIC50,4.75
